102 compounds from PubChem BioAssay AID608 (Sanford-Burnham Center for Chemical Genomics, 2007) can be followed below.

Where “and” joins values, the source holds several entries; their conditions need not be identical. Equal entries are not always repeated. Calls of active or inactive are those of the source. How the calls were made is not given here.

Sequence of Peptidyl-prolyl cis-trans isomerase FKBP1A (Homo sapiens) (P62942 whole entry, looked up): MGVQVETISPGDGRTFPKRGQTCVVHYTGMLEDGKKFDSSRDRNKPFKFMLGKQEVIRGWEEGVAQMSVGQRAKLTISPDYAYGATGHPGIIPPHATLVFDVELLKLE

The experiment addresses Peptidyl-prolyl cis-trans isomerase FKBP1A (Homo sapiens) (UniProt P62942). Description: small-molecule binding to FKBP12 – biophysical, NMR detection (AID 608). The note with it: purified FKBP12.
As for `COc1ccc(NC2=NCC(C)S2)cc1` (configuration not stated), the Kd is > 4 mM (inactive).

For the compound `Nc1cccc2cccnc12`, the Kd was > 4 mM (inactive).

Take `O=C1C2CC=CCC2C(=O)N1c1cccc(O)c1` (configuration not stated): the Kd is > 4 mM (inactive).

For the compound `Cc1nc2ccc(NC(=O)N3CCSCC3)cc2s1`, the Kd is > 4 mM (inactive).

As to `COc1ccc2c(c1)OC1(O)COc3cc(OC)c(OC)cc3C1=C2` (configuration not stated), the Kd is > 4 mM (inactive).

For `CCc1c(C)[nH]c(=S)c(C(N)=O)c1C`, the Kd was > 4 mM (inactive).

Consider `CP(C)(=O)CCC(=O)O`, for which the Kd was > 4 mM (inactive).

For the compound `Cc1nnc(SCC(=O)N2CCCCC2)s1`, the Kd was > 4 mM (inactive).

On to `Cc1nn(C)c2sc(CO)cc12`, for which the Kd is > 4 mM (inactive).

Consider `O=C1CNc2cc(C(=O)O)ccc2N1`, for which the Kd was > 4 mM (inactive).

On to `Clc1ncc2[nH]cnc2n1`, for which the Kd was > 4 mM (inactive).

`Cc1nc2ccc(F)cc2cc1C(=O)NCc1ccco1`: the Kd is > 4 mM (inactive).

For `Nc1cccnc1N1CCOCC1`, the Kd is > 4 mM (inactive).

On to `COC(=O)C1COCCN1C(=O)C(F)(F)Sc1ccc(C(C)C)cc1` (configuration not stated), for which the Kd was 0.19 mM.

In the case of `O=C(COc1cc(Cl)c(Cl)cc1Cl)N1CCOCC1`, the Kd result was “inactive”.

In the case of `C=CCCCCCCCCCCCc1ccco1`, the Kd was > 4 mM (inactive).

On to `COc1ccc(C(N)=O)cc1N`, for which the Kd is > 4 mM (inactive).

For `NC(=O)C1CCN(C(=S)c2cccs2)CC1`, the Kd was > 4 mM (inactive).

With `O=C(Nc1cccnc1)c1ccc(Br)s1`, the Kd was > 4 mM (inactive).

`CC1CN(C(=O)c2sc3ccccc3c2Cl)CC(C)O1` (configuration not stated): the Kd entry was “inactive”.

In the case of `COC(=O)[C@@H]1CCCCN1C(=O)C(=O)c1cc(OC)c(OC)c(OC)c1`, the Kd is 0.003 mM.

For the compound `c1ccc(-n2ncc3c(NCc4ccco4)ncnc32)cc1`, the Kd was > 4 mM (inactive).

As for `Cc1c(C)n2c(SCC(N)=O)nnc2[nH]c1=O`, the Kd was > 4 mM (inactive).

For `COc1ccc(Cc2nccc3cc(OC)c(OC)cc23)cc1OC`, the Kd was > 4 mM (inactive).

`O=c1[nH]c2ccccc2c(=O)n1CCCO`: the Kd is > 4 mM (inactive).

For the compound `Cc1nnc2sc(-c3ccco3)nn12`, the Kd was > 4 mM (inactive).

Regarding `Nc1ccccc1C(=O)N1CCNC(=O)C1`, the Kd is > 4 mM (inactive).

For `O=C(NN=C1CCCC1)c1ccncc1`, the Kd was > 4 mM (inactive).

Regarding `COc1ccc(C(=O)CC(=O)O)c2c1C=CC(C)(C)O2`, the Kd was > 4 mM (inactive).

On to `OCc1ccccc1N1CCOCC1`, for which the Kd is > 4 mM (inactive).

With `CN=C1SC(CC(=O)Nc2ccc(O)cc2)C(=O)N1C` (configuration not stated), the Kd was > 4 mM (inactive).

Consider `C=C(C)[C@H]1COc2cc3oc(=O)ccc3cc2O1`, for which the Kd was > 4 mM (inactive).

Turning to `O=C(Cn1cncn1)c1ccc(F)c(F)c1`, the Kd is > 4 mM (inactive).

For the compound `CC1(C)N([O-])c2cc([N+](=O)[O-])ccc2[N+]1=O`, the Kd is > 4 mM (inactive).

Consider `COC(=O)C1CCc2ccccc2N1` (configuration not stated), for which the Kd was > 4 mM (inactive).

With `Cn1cc(Cl)c(C(=O)NC2CCCCCC2)n1`, the Kd is > 4 mM (inactive).

As for `Cc1cc(C)n2nc(SCC(=O)c3ccccc3)nc2n1`, the Kd was > 4 mM (inactive).

`C[C@H]1[C@H](C)CC[C@]2(CO)CC[C@]3(C)C(=CCC4[C@@]5(C)CC[C@H](O)C(C)(C)C5CC[C@]43C)[C@H]12` (some centres not stated): the Kd was > 4 mM (inactive).

`NC1CS(=O)(=O)CC1O` (configuration not stated): the Kd is > 4 mM (inactive).

As to `CC(=O)Oc1cc2c(c(C)c1OC(C)=O)CC=C1[C@@]2(C)CC[C@@]2(C)C3C[C@](C)(C(=O)O)CC[C@]3(C)CC[C@]12C` (some centres not stated), the Kd is > 4 mM (inactive).

`Nc1nc(SCc2ccccc2)ns1`: the Kd was > 4 mM (inactive).

Turning to `OC1CCN(Cc2ccc[nH]2)CC1`, the Kd was > 4 mM (inactive).

`Cc1cc(O)c(NC(=O)c2ccco2)cc1C`: the Kd is > 4 mM (inactive).

Regarding `CC(=O)O[C@@H]1CC2C(C)(C)[C@H](O)CC[C@]2(C)C2CC[C@@]3(C)[C@H](c4ccoc4)OC(=O)C4OC43[C@@]21C` (some centres not stated), the Kd was > 4 mM (inactive).

Take `O=C(Nc1ccc2c(c1)OCCO2)c1ccncc1`: the Kd was > 4 mM (inactive).

As to `C=C1C2CC[C@H]3[C@]4(C)C[C@H](OC5OC(CO)C(OS(=O)(=O)O)C(OS(=O)(=O)O)C5OC(=O)CC(C)C)C[C@@H](C(=O)O)[C@H]4CC[C@]3(C2)[C@H]1O` (some centres not stated), the Kd was > 4 mM (inactive).

Consider `O=C(NN1CCOCC1)c1cccs1`, for which the Kd was > 4 mM (inactive).

Turning to `COC(=O)C[C@@H]1C2(C)C(=O)[C@@H](CC3C2CC[C@]2(C)C3CC(=O)O[C@H]2c2ccoc2)[C@H](OC(C)=O)C1(C)C` (some centres not stated), the Kd is > 4 mM (inactive).

Regarding `NC(=O)C1CCN(C(=S)Nc2ccccc2)CC1`, the Kd is > 4 mM (inactive).

Take `S=c1[nH]nc(-c2cccnc2)n1C1CCCCC1`: the Kd was > 4 mM (inactive).

For the compound `COc1cc(OC)c(-c2nc3cnccc3n2C)cc1OC`, the Kd is > 4 mM (inactive).

Consider `Cc1ccc(-c2ccc(OCC(=O)N3CCOCC3)cc2)cc1`, for which the Kd result is “inactive”.

Take `CC(C)c1nnc(N)s1`: the Kd is > 4 mM (inactive).

On to `NS(=O)(=O)c1ccc(F)cc1`, for which the Kd was > 4 mM (inactive).

`CC1CCCN(C/C(O)=C(\C#N)c2nc3ccccc3[nH]2)C1` (configuration not stated): the Kd was > 4 mM (inactive).

As for `O=C1CCCN1C(=O)c1ccc(F)cc1`, the Kd was > 4 mM (inactive).

`CCOc1cccc(C(=O)c2ccc(O)c(O)c2O)c1`: the Kd is > 4 mM (inactive).

As for `CN1CCC(N(C)C2CCN(C)CC2)CC1`, the Kd is > 4 mM (inactive).

Turning to `NC(=O)CN1CC(=O)NC(=O)C1`, the Kd was > 4 mM (inactive).

For `O=C(Nc1ccon1)c1ccc(Cl)s1`, the Kd is > 4 mM (inactive).

With `COc1cccc(/C=C2/SC(N)=NC2=O)c1`, the Kd is > 4 mM (inactive).

For the compound `COc1ccc(-c2cc(=O)c3c(OC)c(OC)c(OC)c(OC)c3o2)cc1`, the Kd was > 4 mM (inactive).

As to `CC1=NN(C(N)=S)C(C)(C)C1`, the Kd is > 4 mM (inactive).

Consider `Cc1n[nH]c(=S)[nH]c1=O`, for which the Kd was > 4 mM (inactive).

In the case of `O=c1[nH]c(=O)c2[nH]cnc2[nH]1`, the Kd was > 4 mM (inactive).

In the case of `NC1=C([N+](=O)[O-])C(=O)c2ccccc21`, the Kd is > 4 mM (inactive).

Regarding `CC(=O)NC1C(=O)Nc2c(C)cc(C)cc21` (configuration not stated), the Kd is > 4 mM (inactive).

`Cc1nnc(NC(=O)C(C)Sc2nncn2C)s1` (configuration not stated): the Kd was > 4 mM (inactive).

Turning to `O=S(=O)(N1CCCCC1)n1nnc2ccccc21`, the dissociation constant Kd was > 4 mM (inactive) and 385 µM.

Regarding `COc1ccc(-c2cc(=O)c3c(O)cc(O)c(-c4cc(-c5cc(=O)c6c(O)cc(O)cc6o5)ccc4OC)c3o2)cc1`, the Kd was > 4 mM (inactive).

For the compound `CC(C)=CCCC1(C)C=Cc2c(O)c3c(c(CC=C(C)C)c2O1)OC12C(=CC4CC1C(C)(C)OC2(C/C=C(/C)C(=O)O)C4O)C3=O` (configuration not stated), the Kd was > 4 mM (inactive).

In the case of `COc1cc2c(c(OC)c1OC)-c1ccc(OC)c(=O)cc1[C@@H](NC(C)=O)CC2`, the Kd is > 4 mM (inactive).

Regarding `Clc1ccc(SCCn2cncn2)cc1`, the Kd was > 4 mM (inactive).

With `CS(=O)(=O)Nc1cc2c3c(c1)CCN3C(=O)CC2`, the Kd is > 4 mM (inactive).

`CCOC(=O)Cn1cnc2c1c(=O)[nH]c(=O)n2C`: the Kd is > 4 mM (inactive).

In the case of `OCCCc1nc2ccc(C(F)(F)F)cc2[nH]1`, the Kd was > 4 mM (inactive).

Take `CC(C)(C)c1cc(N)n[nH]1`: the Kd is > 4 mM (inactive).

For the compound `CCCNC(=O)CSc1nnc(C)s1`, the Kd is > 4 mM (inactive).

Turning to `COc1ccc(C2(C)CC(=O)NC2=O)cc1` (configuration not stated), the Kd was > 4 mM (inactive).

For the compound `Cc1cc(NC(=O)c2cnn3cccnc23)no1`, the Kd is > 4 mM (inactive).

Turning to `Nc1ccc2c(C(F)(F)F)cc(=O)oc2c1`, the Kd was > 4 mM (inactive).

Turning to `CC1Cc2nc(SCC(N)=O)n(C)c(=O)c2S1` (configuration not stated), the Kd was > 4 mM (inactive).

For `NCc1ccc(-c2ccccn2)s1`, the Kd was > 4 mM (inactive).

With `CC1(C)CC[C@]2(C)CC[C@]3(C)C(=CCC4[C@@]5(C)CC[C@H](O)C(C)(C)C5CC[C@]43C)C2C1` (some centres not stated), the Kd was > 4 mM (inactive).

As to `Cc1cc(=O)n2[nH]cnc2n1`, the Kd is > 4 mM (inactive).

Consider `CC1(C)Cc2nc(N3CCOCC3)c(C#N)cc2CO1`, for which the Kd is > 4 mM (inactive).

As to `CN(C)c1ccc(CNn2cnnc2)cc1`, the Kd was > 4 mM (inactive).

On to `COc1ccc(-c2cc(=O)c3c(OC(C)=O)cc(OC(C)=O)cc3o2)cc1`, for which the Kd was > 4 mM (inactive).

Regarding `S=C(NC1=NCCS1)Nc1ccccc1`, the Kd is > 4 mM (inactive).

Regarding `O=S(=O)(Cc1ccccc1)N1CCCCCC1`, the Kd is > 4 mM (inactive).

Take `NCc1ccc(S(N)(=O)=O)cc1`: the Kd was > 4 mM (inactive).

With `O=c1[nH]cc(NCc2ccco2)c(=O)[nH]1`, the Kd was > 4 mM (inactive).

On to `Cc1[nH]c2ccccc2c(=O)c1CO`, for which the Kd is > 4 mM (inactive).

`Cn1c(=O)[nH]c(=O)c2nsnc21`: the Kd is > 4 mM (inactive).

For `O=C1C(=O)N(CNc2ncccn2)c2ccccc21`, the Kd is > 4 mM (inactive).

Take `Cc1c(/C=N\n2cnnc2)c2ccccc2n1C`: the Kd was > 4 mM (inactive).

`Nc1ncnc2nc(SCCN3CCCCC3)[nH]c12`: the Kd is > 4 mM (inactive).

For `Cc1ccc(SCc2cc(=O)n3[nH]cnc3n2)cc1`, the Kd is > 4 mM (inactive).

For the compound `Cn1c([O-])c([N+](C)(C)C)c(=O)n(C)c1=O`, the Kd was > 4 mM (inactive).

Regarding `O=C(Nn1c(=S)[nH]c2ccccc2c1=O)c1ccncc1`, the Kd was > 4 mM (inactive).

Regarding `CSc1nnc(-c2ccccc2NC(C)=O)o1`, the Kd is > 4 mM (inactive).

For `O=C(c1ccc2c(c1)OCO2)N1CCC2(CC1)OCCO2`, the Kd was > 4 mM (inactive).
